In US10532040B2, “Methods of treating cancer with herbacetin” (REGENTS OF THE UNIVERSITY OF MINNESOTA, priority 2011, dated 2020):
“Also recorded” adds a separate entry of the source.

Key:
ODC [1] = target: T1, ODC (Homo sapiens, UniProt P11926); test: ODC activity in colon cancer cells (HCT116, DLD-1 lysates); assay type: cell-based; parameters: endogenous in cells; host or cells: HCT116 and DLD-1 colon cancer cells (lysates); settings: compared with DFMO
T1 sequence (P11926 1-461): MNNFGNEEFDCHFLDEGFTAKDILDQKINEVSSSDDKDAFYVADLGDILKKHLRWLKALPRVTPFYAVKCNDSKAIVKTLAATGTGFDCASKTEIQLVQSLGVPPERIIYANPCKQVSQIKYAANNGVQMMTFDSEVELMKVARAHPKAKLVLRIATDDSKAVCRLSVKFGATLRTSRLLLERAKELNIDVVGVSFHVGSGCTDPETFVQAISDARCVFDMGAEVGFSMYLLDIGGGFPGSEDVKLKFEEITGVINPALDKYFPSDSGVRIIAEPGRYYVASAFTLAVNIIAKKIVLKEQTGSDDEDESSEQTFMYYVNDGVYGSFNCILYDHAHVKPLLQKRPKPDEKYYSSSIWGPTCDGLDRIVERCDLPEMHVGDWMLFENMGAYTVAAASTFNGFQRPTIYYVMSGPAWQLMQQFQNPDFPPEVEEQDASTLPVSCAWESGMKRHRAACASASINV
Procedure: (§1) FIGS. 5A-5E. The effect of herbacetin on ODC activity was assessed in (a) DLD-1 and (b) HCT116 colon cancer cells. Cell lysates were incubated for 15 min with reaction buffer and different doses of herbacetin or DFMO and then incubated at 37° C. for 1 h. Herbacetin (c) and kaempferol (d) were modeled as allosteric inhibitors with the ODC crystal structure. (e) The effect of herbacetin or kaempferol on ODC activity was assessed using a human ODC recombinant protein. Each reaction was incubated at 37° C. for 1 h and ODC activity was measured as the release of CO2 from L-[1-C^14] ornithine. Data are represented as means±S.D. of triplicate values. The asterisk (*) indicates a significant difference (p<0.05) between herbacetin-treated samples compared to untreated or kaempferol-treated samples.
(§2) ODC activity was measured as the release of CO2 from L-[1-C^14] ornithine as previously described ([…]).

HCT116 cells = test: HCT116 xenograft in athymic nude mice; assay type: in vivo, mouse
Procedure: Athymic nude mice were inoculated in the right flank with HCT116 cells. Tumors were allowed to grow to an average of 40 mm^3 and then mice were divided into four equal groups with the same average tumor volume (FIG. 10). Treatment was initiated on Day 8 and continued to Day 20. […] No difference between treatment with 0.4 mg/kg B.W. herbacetin, 2 mg/kg B.W herbacetin or 200 mg/kg DFMO was observed.

ERKs/RSK2 signaling = test: TPA- or EGF-induced phosphorylation of ERK1 and ERK2 in JB6 cells, Western blotting; assay type: cell-based, mouse; settings: herbacetin 2 h then TPA or EGF 15 min
Procedure: FIGS. 6A-6B. The effect of herbacetin on (a) TPA- or (b) EGF-induced phosphorylation of ERK1 and ERK2 in JB6 mouse epidermal cells was analyzed by Western blotting. Serum-starved (0.1% FBS; 24 h) cells were treated with various doses of herbacetin for 2 h followed by treatment with TPA for 15 min.
We determined whether herbacetin affected the reporter activity of the MAP kinase target transcription factor, activator protein-1 (AP-1), in HCT116 cells or JB6 cells stimulated with TPA. HCT116 cells were treated with herbacetin for 48 hand JB6 cells were pre-treated with herbacetin for 2 h before stimulation with TPA for 48 h. AP-1 reporter activity was then measured (FIG. 3f, g) and the activity was attenuated by herbacetin in colon cancer cells and in TPA-activated JB6 cells. […] We next examined whether herbacetin directly suppresses phosphorylation of ERK1/2. JB6 cells were treated with TPA or EGF for 15 min after pre-treatment with herbacetin for 2 h and protein expression was analyzed by Western blotting (Supplementary FIG. 2a,b).

ODC [2] = target: T1, ODC; test: pull-down assay with herbacetin-conjugated Sepharose 4B beads (recombinant ODC or HCT116 lysate); assay type: binding; settings: recombinant ODC protein or HCT116 cell lysate, Western blot
Procedure: A recombinant human ODC protein (200 ng) or total cell lysates (500 μg) to were incubated with herbacetin Sepharose 4B (or Sepharose 4B only as a control) beads (50 μl, 50% slurry) in reaction buffer (50 mM Tris pH 7.5, 5 mM EDTA, 150 mM NaCl, 1 mM DTT, 0.01% NP40, 2 μg/mL bovine serum albumin). After incubation with gentle rocking overnight at 4° C., the beads were washed 5 times with buffer (50 mM Tris pH 7.5, 5 mM EDTA, 150 mM NaCl, 1 mM DTT, 0.01% NP40) and binding was determined by Western blotting.

[3] = tested on: activator protein-1 (AP-1); test: AP-1 reporter activity in HCT116 cells; assay type: cell-based; settings: HCT116 cells treated 48 h
Procedure: FIGS. 3A-3H. Anticancer effect of herbacetin. (a) The effect of herbacetin on ODC activity in colon cancer cell lines was measured as the release of CO2 from L-[1-C^14] ornithine. […] (b) The effect of herbacetin and DFMO on the growth of colon cancer cells and (c) TPA-induced JB6 cell growth was compared. Cells were incubated for 72 h and growth was estimated using the MTS assay. (d) The effect of herbacetin on anchorage independent HCT116 colon cancer cell growth and (e) TPA-induced JB6 cell transformation was assessed. Cells were incubated for 2 weeks and then colonies were counted using a microscope and the Image-Pro PLUS (v.6) computer software program. The effect of herbacetin on AP-1 reporter activity in (f) HCT116 colon cancer cells and (g) TPA-induced AP-1 reporter activity in JB6 mouse epidermal cells was analyzed using the substrates included in the reporter assay system. […] (h) The effect of herbacetin on the phosphorylation of ERK1 and ERK2 in HCT116 colon cancer cells was determined by Western blotting. […]
We determined whether herbacetin affected the reporter activity of the MAP kinase target transcription factor, activator protein-1 (AP-1), in HCT116 cells or JB6 cells stimulated with TPA. […] AP-1 reporter activity was then measured (FIG. 3f, g) and the activity was attenuated by herbacetin in colon cancer cells and in TPA-activated JB6 cells. […]

ODC [4] = target: T1, ODC; test: ODC enzyme assay with recombinant ODC protein; assay type: biochemical; settings: in vitro
Procedure: as §1, §2

## O=c1c(O)c(-c2ccc(O)cc2)oc2c(O)c(O)cc(O)c12 [herbacetin, 3,5,7,8,4′-Pentahydroxyflavone]
ODC [1]
  suppression of ODC activity: more effectively; also recorded: markedly more effective than DFMO
HCT116 cells; based on concentration
  potency as therapeutic agent relative to DFMO: much more potent
HCT116 cells; herbacetin 0.4 mg/kg, 2 mg/kg, DFMO 200 mg/kg
  tumor volume, comparison between treated groups: No difference
HCT116 cells; herbacetin 0.4 or 2 mg/kg B.W., DFMO 200 mg/kg, Day 8 to Day 20
  tumor volume, treated groups vs vehicle-treated group: vehicle-treated group were significantly large in volume than any of the three treated groups
ERKs/RSK2 signaling
  direct suppression of ERKs/RSK2 signaling: does not occur directly through the suppression of ERKs/RSK2 signaling
ODC [2]
  binding to ODC: directly binds to ODC; also recorded: bind to ornithine decarboxylase (ODC)
[3]
  AP-1 reporter activity: attenuated
ODC [4]
  ODC activity (release of CO2 from L-[1-C^14] ornithine): inhibited ODC activity similarly
